In patent US11214803B2, “Modulators of YAP1 expression” (Ionis Pharmaceuticals, Inc., priority 2019, dated 2022):
Marks after values point to notes of the source that are not given here.

Assays:
SNU449 xenograft tumor = test: Tumor volume in SNU449 xenograft tumor model (first Example 30); type: in vivo, human; settings: 50 mg/kg
Description: (§1) Modified oligonucleotides described in the studies above were tested in a hepatocellular carcinoma SNU449 xenograft tumor model. A control oligonucleotide 792169 was also tested.
(§2) Five million SNU449 cells in 30% matrigel were implanted subcutaneously into the fatpads of female NOD.Cg-Prkdcscid II2rgtmlWjl/SzJ mice (from Jackson Laboratory) at 4-6 weeks of age. 43 days post implantation (when tumors had reached approximately 100 mm^3 in size), groups of eight mice each were administered with 50 mg/kg modified oligonucleotide daily for 10 days (loading dose), following which they were administered with 50 mg/kg modified oligonucleotide four times a week for one week, following which they were dosed with 50 mg/kg modified oligonucleotide thrice weekly until the end of the study. Animals were sacrificed and tumors were collected on day 119 post implantation. Yap1 mRNA knockdown in tumors was measured by RT-qPCR as previously described using the Human Yap1 primer-probe set RTS4814. Yap1 mRNA levels were normalized to actin-beta content, as measured by primer probe set RTS5002. Results are presented in the tables below as percent control of the amount of Yap1 mRNA relative to PBS treated animals (% control).
Tumor volumes were also measured at the indicated days in the table below

Yap1 mRNA [1] = test: Yap1 mRNA levels in SNU449 xenograft tumors (first Example 30); type: in vivo, human; settings: SNU449 xenograft mice, 50 mg/kg, tumors collected day 119 post implantation, relative to PBS
Description: as §1, §2

Yap1 mRNA [2] = test: Yap1 mRNA in SNU449 cells in combination with sorafenib (Example 48); type: cell-based, human; settings: free uptake, approximately 48 hours
Description: (§3) Modified oligonucleotides described in the studies above were tested at various doses in hepatocellular carcinoma cell line SNU449. ION No. 792169, described herein above, was used as a control modified oligonucleotide. ION No. 715487 was used to target Yap1 RNA. […] After approximately 48 hours, Yap1 mRNA levels were measured.
Yap1 mRNA knockdown in tumors was measured by RT-qPCR as previously described using the Human Yap1 primer-probe set RTS4814. Yap1 mRNA levels were normalized to actin-beta content, as measured by primer probe set RTS5002. Results are presented in the tables below as percent control of the amount of Yap1 mRNA relative to PBS treated cells (% control).

SNU449 cells = test: Cell proliferation assay in SNU449 cells in combination with sorafenib, CellTiter-Glo (Example 48); type: cell-based, human; settings: 144 hours
Description: as §3
144 hours post treatment, proliferation of SNU449 cells was measured using the luminescent cell viability CellTiter-Glo® 2.0 Assay (Promega). Results are presented in the tables below as percent control of the amount of luminescence in samples treated with modified oligonucleotides relative to untreated control cells (% UTC).

[3] = oligonucleotide at 0.04 uM, sorafenib 0 uM
[4] = oligonucleotide at 0.04 uM, sorafenib 0.37 uM
[5] = oligonucleotide at 0.04 uM, sorafenib 3.33 uM
[6] = oligonucleotide at 0.04 uM, sorafenib 10 uM
[7] = oligonucleotide at 0.04 uM, sorafenib […]
[8] = oligonucleotide at 0.2 uM, sorafenib 0 uM
[9] = oligonucleotide at 0.2 uM, sorafenib 0.37 uM
[10] = oligonucleotide at 0.2 uM, sorafenib 3.33 uM
[11] = oligonucleotide at 0.2 uM, sorafenib 10 uM
[12] = oligonucleotide at 0.2 uM, sorafenib […]
[13] = oligonucleotide at 1 uM, sorafenib 0 uM
[14] = oligonucleotide at 1 uM, sorafenib 0.37 uM
[15] = oligonucleotide at 1 uM, sorafenib 3.33 uM
[16] = oligonucleotide at 1 uM, sorafenib 10 uM
[17] = oligonucleotide at 1 uM, sorafenib […]
[18] = oligonucleotide at 5 uM, sorafenib 0 uM
[19] = oligonucleotide at 5 uM, sorafenib 0.37 uM
[20] = oligonucleotide at 5 uM, sorafenib 3.33 uM
[21] = oligonucleotide at 5 uM, sorafenib 10 uM
[22] = oligonucleotide at 5 uM, sorafenib […]

CGCCGATAAGGTACAC (cEt gapmer, phosphorothioate backbone, further chemistry not given here) [ION 792169, reference compound]
Average Tumor Volume (SNU449 xenograft tumor; day 43 post tumor implantation): 111 mm^3
Average Tumor Volume (SNU449 xenograft tumor; day 46 post tumor implantation): 162 mm^3
Average Tumor Volume (SNU449 xenograft tumor; day 50 post tumor implantation): 180 mm^3
Average Tumor Volume (SNU449 xenograft tumor; day 53 post tumor implantation): 247 mm^3
Average Tumor Volume (SNU449 xenograft tumor; day 57 post tumor implantation): 280 mm^3
Average Tumor Volume (SNU449 xenograft tumor; day 60 post tumor implantation): 317 mm^3
Average Tumor Volume (SNU449 xenograft tumor; day 64 post tumor implantation): 397 mm^3
Average Tumor Volume (SNU449 xenograft tumor; day 67 post tumor implantation): 466 mm^3
Average Tumor Volume (SNU449 xenograft tumor; day 71 post tumor implantation): 519 mm^3
Average Tumor Volume (SNU449 xenograft tumor; day 75 post tumor implantation): 559 mm^3
Average Tumor Volume (SNU449 xenograft tumor; day 78 post tumor implantation): 634 mm^3
Average Tumor Volume (SNU449 xenograft tumor; day 81 post tumor implantation): 681 mm^3
Average Tumor Volume (SNU449 xenograft tumor; day 85 post tumor implantation): 785 mm^3
Average Tumor Volume (SNU449 xenograft tumor; day 88 post tumor implantation): 889 mm^3
Average Tumor Volume (SNU449 xenograft tumor; day 92 post tumor implantation): 1170 mm^3
Average Tumor Volume (SNU449 xenograft tumor; day 94 post tumor implantation): 1215 mm^3
Average Tumor Volume (SNU449 xenograft tumor; day 98 post tumor implantation): 1355 mm^3
Average Tumor Volume (SNU449 xenograft tumor; day 101 post tumor implantation): 1417 mm^3
Average Tumor Volume (SNU449 xenograft tumor; day 105 post tumor implantation): 1509 mm^3
Average Tumor Volume (SNU449 xenograft tumor; day 108 post tumor implantation): 1571 mm^3
Average Tumor Volume (SNU449 xenograft tumor; day 119 post tumor implantation): 1697* mm^3
Yap1 mRNA levels in tumors (Yap1 mRNA [1]): 90 % control
YAP1 mRNA (Yap1 mRNA [2]; [3]): 115 % control
YAP1 mRNA (Yap1 mRNA [2]; [4]): 97 % control
YAP1 mRNA (Yap1 mRNA [2]; [5]): 99 % control
YAP1 mRNA (Yap1 mRNA [2]; [6]): 102 % control
YAP1 mRNA (Yap1 mRNA [2]; [7]): 100 % control
YAP1 mRNA (Yap1 mRNA [2]; [8]): 113 % control
YAP1 mRNA (Yap1 mRNA [2]; [9]): 96 % control
YAP1 mRNA (Yap1 mRNA [2]; [10]): 91 % control
YAP1 mRNA (Yap1 mRNA [2]; [11]): 94 % control
YAP1 mRNA (Yap1 mRNA [2]; [12]): 97 % control
YAP1 mRNA (Yap1 mRNA [2]; [13]): 103 % control
YAP1 mRNA (Yap1 mRNA [2]; [14]): 99 % control
YAP1 mRNA (Yap1 mRNA [2]; [15]): 92 % control
YAP1 mRNA (Yap1 mRNA [2]; [16]): 93 % control
YAP1 mRNA (Yap1 mRNA [2]; [17]): 93 % control
YAP1 mRNA (Yap1 mRNA [2]; [18]): 103 % control
YAP1 mRNA (Yap1 mRNA [2]; [19]): 104 % control
YAP1 mRNA (Yap1 mRNA [2]; [20]): 97 % control
YAP1 mRNA (Yap1 mRNA [2]; [21]): 97 % control
YAP1 mRNA (Yap1 mRNA [2]; [22]): 95 % control
Antiproliferative effect (cell proliferation, luminescence) (SNU449 cells; [3]): 99 % UTC
Antiproliferative effect (cell proliferation, luminescence) (SNU449 cells; [4]): 103 % UTC
Antiproliferative effect (cell proliferation, luminescence) (SNU449 cells; [5]): 51 % UTC
Antiproliferative effect (cell proliferation, luminescence) (SNU449 cells; [6]): 3 % UTC
Antiproliferative effect (cell proliferation, luminescence) (SNU449 cells; [7]): 97 % UTC
Antiproliferative effect (cell proliferation, luminescence) (SNU449 cells; [8]): 97 % UTC
Antiproliferative effect (cell proliferation, luminescence) (SNU449 cells; [9]): 100 % UTC
Antiproliferative effect (cell proliferation, luminescence) (SNU449 cells; [10]): 30 % UTC
Antiproliferative effect (cell proliferation, luminescence) (SNU449 cells; [11]): 4 % UTC
Antiproliferative effect (cell proliferation, luminescence) (SNU449 cells; [12]): 91 % UTC
Antiproliferative effect (cell proliferation, luminescence) (SNU449 cells; [13]): 97 % UTC
Antiproliferative effect (cell proliferation, luminescence) (SNU449 cells; [14]): 95 % UTC
Antiproliferative effect (cell proliferation, luminescence) (SNU449 cells; [15]): 27 % UTC
Antiproliferative effect (cell proliferation, luminescence) (SNU449 cells; [16]): 3 % UTC
Antiproliferative effect (cell proliferation, luminescence) (SNU449 cells; [17]): 89 % UTC
Antiproliferative effect (cell proliferation, luminescence) (SNU449 cells; [18]): 86 % UTC
Antiproliferative effect (cell proliferation, luminescence) (SNU449 cells; [19]): 84 % UTC
Antiproliferative effect (cell proliferation, luminescence) (SNU449 cells; [20]): 6 % UTC
Antiproliferative effect (cell proliferation, luminescence) (SNU449 cells; [21]): 1 % UTC
Antiproliferative effect (cell proliferation, luminescence) (SNU449 cells; [22]): 68 % UTC
